Assay results taken from patent publication US20140155445A1, “Compounds and Methods for Treating Cancer and Diseases of the Central Nervous System” (Osta Biotechnologies Inc., priority 2007, published 2014).

Legend:
[1] = system: OVCAR-3 (human ovarian carcinoma); assay: Ovarian carcinoma model OVCAR-3 in SCID mice; assay type: in vivo; conditions: QC-56 60 mg/kg/ip
Excerpt: • Species and strain: […] OVCAR-3 (human ovarian carcinoma). […] Control groups received the vehicle alone.

SKMEL-V+ cells = assay: Cell proliferation / survival, MTT assay, SKMEL-V+ cells; assay type: cell-based, human; conditions: 6.25 μM to 100 μM, 96 hours
Experimental: Exponentially growing SKMEL-V+ cells (1×10^3) were seeded in 96-well plates in complete medium. […] Cell survival was evaluated 96 hours later using the MTT metabolic assay (Benlimame N, He Q, Jie S, et al. FAK signaling is critical for ErbB-2/ErbB-3 receptor cooperation for oncogenic transformation and invasion. J Cell Biol 2005; 171: 505-16).

[2] = system: Panc-1 human pancreatic carcinoma cells; assay: Human pancreatic cancer model Panc-1 in SCID mice; assay type: in vivo; conditions: 30 and 60 mg/kg i.p.
Excerpt: Human pancreatic carcinoma cells (“Panc-1 cells”) were originally received from the ATCC (American Type Culture Collection).
Only those cells with >95% viability were used for in-vivo studies.
Once tumors reached a size of approximately 0.7 cm^3, they were removed under sterile condition, sliced into small pieces under a stereo-microscope. Each tissue piece was then reinoculated subcutaneously. Only pieces of approximately the same size and with no signs of necrosis were used.
At the end of the experiment, mice were sacrificed by cervical dislocation and full autopsies were conducted. A picture was taken of tumors from randomly selected mice. The tumors were then fixed in formalin for pathology examination.

APPswe/PS1dE9 mice = assay: Behavioral studies (maze, fear conditioning) in APPswe/PS1dE9 mice; assay type: in vivo, mouse
Experimental: The experiments were performed at Pennington Biomedical Research Centre (PBRC) of Lousiana State University, Baton Rouge, Lousiana and were approved by the Institutional Animal Care and Use Committee (IACUC) of PBRC.
The APPswe/PS1dE9 mice were generated against a C57/BL6J background by breeding either +/+ males or females with −/− females or males, respectively.
Memantine (10 mg/kg) and both doses of QC-199 (15 mg/kg & 30 mg/kg) were prepared in batches and frozen for later use. Each compound was weighed and dissolved in injectable sterile saline solution. Memantine was prepared at a concentration of 1 mg/ml, the 15 mg/kg dose of QC-199 at a volume of 15 mg/10 ml, and the 30 mg/kg dose of QC-199 at a volume of 30 mg/10 ml. The compounds were prepared in this volume so that the mice could easily be injected based on their body weight, e.g., a 35 gram mouse was injected with 0.35 ml dosing solution.
Memantine and QC-199 dosing solutions were administered to mice via i.p. injections. The mice were weighed 3 times/week and were injected with a volume that matched their body weight. The mice were injected daily and the injection located was alternated each day to avoid potential complications from injection in the same location on a daily basis.
After reaching their respective treatment duration, the wild type and APP/PS1 double transgenic mice were run through the STM and fear conditioning. The STM consisted of one day of straight run training (running down an alley from the start box to the goal box). This phase was implemented to establish the contingency that moving forward would provide escape into the dark and dry goal box. The mice were required to reach a criterion of completing the straight run in 15 sec or less on 7 out of 9 trials over a maximum of 15 trials. […] The following day each mouse was administered 15 trials in the STM with approximately 7-10 min between each trial where they were placed into a holding cage with a towel. The latency to reach the goal box and the number of errors committed were the dependent measures of learning. However, in our experience, errors committed is much more indicative of learning and is reported for this project. Pictures of the straight run (A) and maze (B) are shown in FIG. 42, along with a schematic (C) of the maze indicating the correct path. The data from the maze was collapsed into blocks of 5 trials for data summary and presentation.
Med Associates Inc.'s MED-VFC-NIR-M NIR Video Fear Conditioning System for Mouse, Pavlovian fear conditioning was conducted after the STM. On Day 1 the mice were placed in Context 1 and given 5 tone+shock pairings. On day 2 the mice were placed back into Context 1 and their freezing response to being placed back into the original context where fear conditioning occurred was measured. Freezing is operationally defined as the cessation of all movement except that required for respiration. Freezing was measured over 10 minutes, and data were summarized in 1-min intervals. On day 3 the mice were placed into a novel context (Context 2) for 10 min. […] For the final 5 min, the tone paired with shock during fear conditioning was presented. Again, the data was summarized in 1-min intervals.
Maze data was analyzed by two-way ANOVAs to determine treatment group effects for both errors and run time after the data was collapsed into three 5 trial blocks. Planned comparisons of transgenic mice treated with saline with each of the drug treatments, memantine or QC-199 at 15 mg/kg/day and 30 mg/kg/day were conducted to evaluate group differences in the maze at each trial block and both tone and contextual fear conditioning tests. The critical a level was set at 0.05 for all statistical tests. The values in FIGS. 46A-46C represent the means±S.E.M. The data was analyzed using the SPSS statistical program version 11.0. […]

[3] = Pharmacokinetic evaluation of QC-199 in mouse plasma, IV infusion; assay type: in vivo
Experimental: Regular male CD1 mice, 6 weeks old, were obtained from Charles River Laboratories, St. Zotique, PQ, Canada. The mice weighed 22-28 g. The experiments were approved by the Animal Care Committee, McGill University, Montreal, Quebec. The animals were housed in individual cages and were fed standard rodent chow and water ad libitum. Mice weights were measured with a digital balance accurate to 0.05 g and then received QC-199 at the indicated doses either orally, or via i.p. injections or following i.v. slow infusion. In the case of i.v. injection or i.v. infusion, mice were anesthetized using isoflurane-based system (DISPOMED, MODUFLEX COMPACT NRB, 3975-0800-000). For the infusion, a mini pump (NE-1800, New Era Pump Systems, Inc.) was used to infuse the compound via the tail vein during a 2 h period. In one study, blood and brain tissue samples were collected at various time points after administration of QC-199 using EDTA tubing (Das Original S-Monovette EDTA KE/1.2 ml lot.9094102 and Needle for S-Monovette 22G lot. 8073401) via cardiac puncture and immediately stored at 4° C. Serum was collected after the samples were centrifuged 2200×, 4° C. for 20 minutes and stored at −80° C. until analysis. For the brain tissue collection, skin of mice was removed and brain was carefully dissected out from the skull, transferred into a Petri dish, briefly washed with ice-cold phosphate-buffered saline (PBS), and immediately stored at −80° C. until further analysis.
The assay of QC-199 in mouse plasma and brain samples was carried out using qualified LC/MS/MS assay methods.

[4] = male, CD-1, mouse, in vivo, IV infusion

Structure (SMILES)	reduction of tumor growth [1]	tumor size on the day of sacrifice ([1]; CDDP 3 mg/kg) [cm^3]	% cell survival (SKMEL-V+ cells)	anti-tumor activity [2]	effect on maze errors and contextual fear conditioning (summary) (APPswe/PS1dE9 mice; Memantine, QC-199 15 mg/kg and 30 mg/kg, dtg mice)	maze errors vs saline-treated APP/PS1 mice (APPswe/PS1dE9 mice; QC-199 30 mg/kg/day i.p., trend at Trial Block 3 (p=0.052))	contextual fear conditioning (freezing) vs saline-treated APP/PS1 mice (APPswe/PS1dE9 mice; QC-199 15 and 30 mg/kg/day, Memantine 10 mg/kg, Time Blocks 1-4)	AUC_%Extrap_obs ([3]; IV infusion) [%]	AUC(0-inf) [3, 4] [µg·h/mL]	Tmax [3, 4] [h]	half-life ([3]; male, CD-1, mouse, in vivo, IV infusion, from Lambda z, read-out: T½ (converted)) [h]	AUC ([3]; male, CD-1, mouse, in vivo, IV infusion, read-out: AUCall (0-24 h)) [µg·h/mL]	Cmax ([3]; mouse, 90 min IV infusion, male CD-1 mice) [ng/mL]
Brc1ccc(CCC2(Cn3ccnc3)OCCO2)cc1.Cl [QC-56, 1-((2-(2-(4-Bromophenyl)ethyl)-1,3-dioxolan-2-yl)methyl)-1H-imidazole hydrochloride]	approximately 15%	1.12±0.08	Dose dependent decrease in cell survival	not in the pancreatic cancer model Panc-1									
Brc1ccc(CCCCn2ccnc2)cc1.Cl [QC-199, 1-[4-(4-bromophenyl)butyl]-1H-imidazole hydrochloride]			Dose dependent decrease in cell survival		positive effect	did not exhibit improved performance at any of the Trial Blocks	none reached significance	37	224	3	18	141	8000
